A word on the IC50: it is the concentration needed to halve the response being measured.

Data on twelve compounds can be found in US12123010B2, “Plants having increased tolerance to herbicides” (BASF SE, priority 2017, dated 2024).

Assay [1] concerns the target Variant PPO Enzyme F420M (Amaranthus PPO2) (Amaranthus tuberculatus, UniProt Q0NZW9, F420M). The assay can be described thus: biochemical. The assay is classed as biochemical.
Assay [2] deals with Variant PPO Enzyme L397Q, F420V (Amaranthus PPO2) (Amaranthus tuberculatus, UniProt Q0NZW9, F420V/L397Q). The assay is classed as biochemical.
In assay [3] the target is Variant PPO Enzyme L397Q, F420M (Amaranthus PPO2) (Amaranthus tuberculatus, UniProt Q0NZW9, F420M/L397Q). In kind it is biochemical.
Assay [4] concerns the target Variant PPO Enzyme F420V (Amaranthus PPO2) (Amaranthus tuberculatus, UniProt Q0NZW9, F420V). The assay is classed as biochemical.
In assay [5] the test system is Transgenic T2 Arabidopsis plants harboring PPO inhibitor tolerance trait. The experiment in a line: Lab based germination assay in 48-well plates (Table i). In kind it is in vivo, Arabidopsis thaliana.
Assay [6] has as its target Variant PPO Enzyme R128A, F420V (Amaranthus PPO2) (Amaranthus tuberculatus, UniProt Q0NZW9, F420V/R128A). The assay can be described thus: biochemical. In kind it is biochemical.
Assay [7] has as its target Variant PPO Enzyme L397Q (Amaranthus PPO2) (Amaranthus tuberculatus, UniProt Q0NZW9, L397Q). In kind it is biochemical.
Assay [8] concerns the target Variant PPO Enzyme R128A, F420M (Amaranthus PPO2) (Amaranthus tuberculatus, UniProt Q0NZW9, F420M/R128A). The assay is classed as biochemical.
The target in assay [9] is Variant PPO Enzyme L397E, F420M (Amaranthus PPO2) (Amaranthus tuberculatus, UniProt Q0NZW9, F420M/L397E). In kind it is biochemical.
Setting [10] is: read-out: Variant PPO Enzyme IC50.

Values joined by “and” are separate entries in the source; they are usually repeats but may differ in a detail not shown here. Equal values may be shown once. Read-outs that look alike come from different tables or passages of the source.

Sequence of Variant PPO Enzyme R128A, F420M (Amaranthus PPO2) (Q0NZW9 1-534 F420M/R128A): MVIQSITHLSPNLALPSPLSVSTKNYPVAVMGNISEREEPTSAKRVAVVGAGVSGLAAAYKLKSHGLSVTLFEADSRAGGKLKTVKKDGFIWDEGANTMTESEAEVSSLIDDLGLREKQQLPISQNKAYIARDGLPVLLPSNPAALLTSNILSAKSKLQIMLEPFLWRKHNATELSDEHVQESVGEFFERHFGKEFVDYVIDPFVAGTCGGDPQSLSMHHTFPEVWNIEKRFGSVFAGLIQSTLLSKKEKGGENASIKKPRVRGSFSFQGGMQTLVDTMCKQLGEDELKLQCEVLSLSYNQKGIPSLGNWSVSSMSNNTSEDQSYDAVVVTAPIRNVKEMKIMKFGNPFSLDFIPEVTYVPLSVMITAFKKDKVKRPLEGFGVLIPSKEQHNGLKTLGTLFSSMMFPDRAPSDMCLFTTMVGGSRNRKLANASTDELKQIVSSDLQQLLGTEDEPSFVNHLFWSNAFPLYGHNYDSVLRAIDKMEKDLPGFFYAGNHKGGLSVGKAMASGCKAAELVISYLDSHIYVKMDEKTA
Sequence of Variant PPO Enzyme R128A, F420V (Amaranthus PPO2) (Q0NZW9 1-534 F420V/R128A): as the sequence (Q0NZW9 1-534 F420M/R128A) above, with M420V counted along it
Sequence of Variant PPO Enzyme F420M (Amaranthus PPO2) (Q0NZW9 1-534 F420M): as the sequence (Q0NZW9 1-534 F420M/R128A) above, with A128R counted along it
Sequence of Variant PPO Enzyme L397Q, F420V (Amaranthus PPO2) (Q0NZW9 1-534 F420V/L397Q): as the sequence (Q0NZW9 1-534 F420M/R128A) above, with A128R, L397Q, M420V counted along it
Sequence of Variant PPO Enzyme L397Q, F420M (Amaranthus PPO2) (Q0NZW9 1-534 F420M/L397Q): as the sequence (Q0NZW9 1-534 F420M/R128A) above, with A128R, L397Q counted along it
Sequence of Variant PPO Enzyme L397Q (Amaranthus PPO2) (Q0NZW9 1-534 L397Q): as the sequence (Q0NZW9 1-534 F420M/R128A) above, with A128R, L397Q, M420F counted along it
Sequence of Variant PPO Enzyme F420V (Amaranthus PPO2) (Q0NZW9 1-534 F420V): as the sequence (Q0NZW9 1-534 F420M/R128A) above, with A128R, M420V counted along it
Sequence of Variant PPO Enzyme L397E, F420M (Amaranthus PPO2) (Q0NZW9 1-534 F420M/L397E): as the sequence (Q0NZW9 1-534 F420M/R128A) above, with A128R, L397E counted along it

Turning to `CCOC(=O)COc1ncccc1Oc1cc(-n2c(=O)cc(C(F)(F)F)n(C)c2=O)c(F)cc1Cl` [Uracilpyridine 1, ethyl 2-[[3-[2-chloro-4-fluoro-5-[3-methyl-2,6-dioxo-4-(trifluoromethyl)pyrimiclin-1-yl]phenoxy]-2-pyridyl]oxy]acetate], the IC50 is 38.1 nM and 46.9 nM in assay [1] (setting [10]); 2260 nM in [2]; 429 nM in [3]; 66.4 nM in assay [4]; 162 nM and 280 nM in assay [6] (setting [10]); 2.38 nM in assay [7]. This compound also gave an IC50 in assay [8] of 61.6 nM. In addition, the “Tolerance Factor” value stood at 110 in assay [5] (construct AMATU_PPO2_F420M (Amaranthus tuberculatus), in comparison to wild type plants); 50 in [5] (construct AMATU_PPO2_L397D (Amaranthus tuberculatus), in comparison to wild type plants); 41 in assay [5] (construct AMATU_PPO2_L397D_F420V (Amaranthus tuberculatus), in comparison to wild type plants); 50 in assay [5] (construct AMATU_PPO2_R128A_F420M (Amaranthus tuberculatus), in comparison to wild type plants); 75 in [5] (construct AMATU_PPO2_R128A_F420V (Amaranthus tuberculatus), in comparison to wild type plants); 6 in assay [5] (construct AMATU_PPO2_WT (Amaranthus tuberculatus), growth inhibition in comparison to wild type plants).

Regarding `CCOC(=O)COc1ncccc1Oc1nc(-n2c(=O)cc(C(F)(F)F)n(C)c2=O)c(F)cc1Cl` [Uracilpyridine 2, ethyl 2-[[3-[[3-chloro-5-fluoro-6-[3-methyl-2,6-dioxo-4-(trifluoromethyl)pyrimidin-1-yl]-2-pyridyl]oxy]-2-pyridyl]oxy]acetate], the IC50 amounted to 45.7 nM in assay [1], 149 nM in assay [6] and 97.4 nM in assay [8].

For `CCOC(=O)COc1ccccc1Oc1nc(-n2c(=O)cc(C(F)(F)F)n(C)c2=O)c(F)cc1Cl` [Uracilpyridine 4, ethyl 2-[2-[[3-chloro-5-fluoro-6-[3-methyl-2,6-dioxo-4-(trifluoromethyl)pyrimidin-1-yl]-2-pyridyl]oxy]phenoxy]acetate], inhibition in assay [8] was half-maximal at 69.4 nM (IC50).

Consider `Cn1c(C(F)(F)F)cc(=O)n(-c2nc(Oc3ccccc3OCC(=O)NS(C)(=O)=O)c(Cl)cc2F)c1=O` [Uracilpyridine 10, 2-[2-[[3-chloro-5-fluoro-6-[3-methyl-2,6-dioxo-4-(trifluoromethyl)pyrimidin-1-yl]-2-pyridyl]oxy]phenoxy]-N-methylsulfonyl-acetamide], for which the IC50 in [9] was found to be 6510 nM; in assay [8] it was 1670 nM.

With `CCOC(=O)COc1ccccc1Oc1nc(-n2c(=O)c(C)c(C(F)(F)F)n(C)c2=O)c(F)cc1Cl` [Uracilpyridine 12, ethyl 2-[2-[[3-chloro-6-[3,5-dimethyl-2,6-dioxo-4-(trifluoromethyl)pyrimidin-1-yl]-5-fluoro-2-pyridyl]oxy]phenoxy]acetate], the IC50 in assay [8] is 114 nM.

Turning to `C=CCOC(=O)COc1ncccc1Oc1nc(-n2c(=O)cc(C(F)(F)F)n(C)c2=O)c(F)cc1Cl` [Uracilpyridine 13, allyl 2-[[3-[[3-chloro-5-fluoro-6-[3-methyl-2,6-dioxo-4-(trifluoromethyl)pyrimidin-1-yl]-2-pyridyl]oxy]-2-pyridyl]oxy]acetate], the 50% inhibitory concentration (IC50) in [8] stood at 91.8 nM.

On to `C#CCOC(=O)COc1ncccc1Oc1nc(-n2c(=O)cc(C(F)(F)F)n(C)c2=O)c(F)cc1Cl` [Uracilpyridine 14, prop-2-ynyl 2-[[3-[[3-chloro-5-fluoro-6-[3-methyl-2,6-dioxo-4-(trifluoromethyl)pyrimidin-1-yl]-2-pyridyl]oxy]-2-pyridyl]oxy]acetate], for which it took 158 nM to reach half-maximal inhibition in assay [8] (IC50).

Take `Cn1c(C(F)(F)F)cc(=O)n(-c2nc(Oc3cccnc3OCC(=O)OCC3CC3)c(Cl)cc2F)c1=O` [Uracilpyridine 15, cyclopropylmethyl 2-[[3-[[3-chloro-5-fluoro-6-[3-methyl-2,6-dioxo-4-(trifluoromethyl)pyrimidin-1-yl]-2-pyridyl]oxy]-2-pyridyl]oxy]acetate]: it took 42.9 nM to reach half-maximal inhibition in [8] (IC50).

For `Cn1c(C(F)(F)F)cc(=O)n(-c2nc(Oc3cccnc3OCC(=O)OCC(F)F)c(Cl)cc2F)c1=O` [Uracilpyridine 16, 2,2-difluoroethyl 2-[[3-[[3-chloro-5-fluoro-6-[3-methyl-2,6-dioxo-4-(trifluoromethyl)pyrimidin-1-yl]-2-pyridyl]oxy]-2-pyridyl]oxy]acetate], it took 89 nM to reach half-maximal inhibition in assay [8] (IC50).

For the compound `CC(C)COC(=O)COc1ncccc1Oc1nc(-n2c(=O)cc(C(F)(F)F)n(C)c2=O)c(F)cc1Cl` [Uracilpyridine 17, isobutyl 2-[[3-[[3-chloro-5-fluoro-6-[3-methyl-2,6-dioxo-4-(trifluoromethyl)pyrimidin-1-yl]-2-pyridyl]oxy]-2-pyridyl]oxy]acetate], in assay [8], the IC50 is 46.1 nM.

Compound `CCOC(=O)COC(=O)COc1ncccc1Oc1nc(-n2c(=O)cc(C(F)(F)F)n(C)c2=O)c(F)cc1Cl` [Uracilpyridine 18, (2-ethoxy-2-oxo-ethyl) 2-[[3-[[3-chloro-5-fluoro-6-[3-methyl-2,6-dioxo-4-(trifluoromethyl)pyrimidin-1-yl]-2-pyridyl]oxy]-2-pyridyl]oxy]acetate] had a 50% inhibitory concentration (IC50) in [8] of 116 nM.

As for `COCCOC(=O)COc1ncccc1Oc1nc(-n2c(=O)cc(C(F)(F)F)n(C)c2=O)c(F)cc1Cl` [Uracilpyridine 19, 2-methoxyethyl 2-[[3-[[3-chloro-5-fluoro-6-[3-methyl-2,6-dioxo-4-(trifluoromethyl)pyrimidin-1-yl]-2-pyridyl]oxy]-2-pyridyl]oxy]acetate], half-maximal inhibition in assay [8] (IC50) required 125 nM.
